The text below walks through data of patent publication US20250346602A1, “LACTAM SUBSTITUTED IMIDAZOPYRIDAZINE IL-17A MODULATORS AND USES THEREOF” (DICE ALPHA, INC., priority 2022, published 2025).

Usually IC50 stands for the concentration that gives 50% inhibition.

SMILES strings stand for the structures. Where only a bound is given, the exact number is not on record here.

In this test the target is T1, IL-17A/A (Homo sapiens, UniProt Q16552).
T1 construct: purchased Genscript Z03228
T1 sequence (Q16552 24-155): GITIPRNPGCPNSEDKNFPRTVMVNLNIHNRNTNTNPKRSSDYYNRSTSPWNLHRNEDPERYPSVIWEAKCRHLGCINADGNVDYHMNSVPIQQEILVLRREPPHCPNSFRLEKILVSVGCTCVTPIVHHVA
The experiment in a line: IL-17A/A HEK-Blue cell assay. Type of test: cell-based. The settings on record: HEK-Blue IL-17A reporter cell line (HEK 293), IL-17A/A stimulation, 20 hours incubation, SEAP read at A630. How it is done:
The HEK-Blue IL-17A reporter cell line (Fisher #NC1408637) was used for cell-based IL-17A/A inhibition assays. Cells were grown and prepared for assays according to the manufacturer's instructions. This cell line consists of HEK 293 cells that were designed to expressed IL-17RA, IL-17RC, and the ActI adapter molecule, the combination of which, when stimulated by IL-17A/A activates a NFκB promoter and drives expression of a recombinant Secreted Alkaline Phosphatase (SEAP) gene protein. Media from the cells is then added to a development reagent (Quanti-Blue Substrate, Fisher #NC9711613), and read at A630.
Compounds were titrated in DMSO, with a top final compound concentration of 10 uM, 1 uM, or 0.3 uM, and added to the cells immediately before adding IL-17A/A (Genscript #Z03228). The cells, compound, and IL-17A/A were then incubated for 20 hours before media was removed for SEAP analysis. The resulting inhibition curve was then analyzed using Graphpad Prism 7.0, and IC50 values were determined using a 4-parameter nonlinear fit. DMSO was added to a universal final concentration of 0.1% to optimize background.

In the case of `CC1(c2nocc2C(=O)N[C@H](c2cn3nc(CC4C[C@@H](C(F)(F)F)CNC4=O)ccc3n2)C2CCC(F)(F)CC2)CC1` (stereo partly drawn) [Compound 123, N-((1S)-(4,4-difluorocyclohexyl)(6-(((5R)-2-oxo-5-(trifluoromethyl)piperidin-3-yl)methyl)imidazo[1,2-b]pyridazin-2-yl)methyl)-3-(1-methylcyclopropyl)isoxazole-4-carboxamide], the IC50 fell in the range of 0.1 to 1 µM. For `O=C(N[C@H](c1cn2nc(CC3C[C@@H](C(F)(F)F)CNC3=O)ccc2n1)C1CCC(F)(F)CC1)c1conc1CCF` (stereo partly drawn) [Compound 110, N-((1S)-(4,4-difluorocyclohexyl)(6-(((5R)-2-oxo-5-(trifluoromethyl)piperidin-3-yl)methyl)imidazo[1,2-b]pyridazin-2-yl)methyl)-3-(2-fluoroethyl)isoxazole-4-carboxamide] the value was 0.1 to 1 µM; for `CCn1nccc1C(=O)NC(c1cn2ncc(CC3CC(F)(F)CNC3=O)cc2n1)C1CCC(C)CC1` (single isomer, unassigned) [Compound 210], greater than 1 µM. Then `CCc1nonc1C(=O)N[C@H](c1cn2nc(CC3C[C@@H](C(F)(F)F)CNC3=O)ccc2n1)C1CCC(F)(F)CC1` (stereo partly drawn) [Compound 112, N-((1S)-(4,4-difluorocyclohexyl)(6-(((5R)-2-oxo-5-(trifluoromethyl)piperidin-3-yl)methyl)imidazo[1,2-b]pyridazin-2-yl)methyl)-4-ethyl-1,2,5-oxadiazole-3-carboxamide], with 0.1 to 1 µM.

Regarding `CCn1nccc1C(=O)N[C@H](c1cn2nc(CC3C[C@@H](C(F)(F)F)CNC3=O)ccc2n1)[C@H]1CC[C@H](C)CC1` (stereo partly drawn) [Compound 97, 1-ethyl-N-((1S)-((1R.4S)-4-methylcyclohexyl)(6-(((5R)-2-oxo-5-(trifluoromethyl)piperidin-3-yl)methyl)imidazo[1,2-b]pyridazin-2-yl)methyl)-1H-pyrazole-5-carboxamide], the IC50 was 0.1 to 1 µM. Then `CCn1nccc1C(=O)N[C@H](c1cn2nc(CC3C[C@@H](C(F)(F)F)CNC3=O)ccc2n1)[C@H]1CCCC(F)(F)C1` (stereo partly drawn) [Compound 142, N-((1S)—((S)-3,3-difluorocyclohexyl)(6-(((5R)-2-oxo-5-(trifluoromethyl)piperidin-3-yl)methyl)imidazo[1,2-b]pyridazin-2-yl)methyl)-1-ethyl-1H-pyrazole-5-carboxamide], with less than 0.1 µM; and `CCn1nccc1C(=O)NC(c1cn2nc(CC3CC(C)CNC3=O)ccc2n1)C1CCC(C)CC1` (single isomer, unassigned) [Compound 51], with 0.1 to 1 µM; and `CCn1nccc1C(=O)N[C@H](c1cn2nc(CC3CC(C(F)F)CNC3=O)ccc2n1)C(C1CC1)C1CC1` (mixture of isomers) [Compound 41, N-((1S)-2,2-dicyclopropyl-1-(6-((5-(difluoromethyl)-2-oxopiperidin-3-yl)methyl)imidazo[1,2-b]pyridazin-2-yl)ethyl)-1-ethyl-1H-pyrazole-5-carboxamide], with greater than 1 µM. For `O=C(N[C@H](c1cn2nc(CC3C[C@H](C(F)(F)F)CNC3=O)ccc2n1)[C@H]1CCCC(F)(F)C1)c1conc1C1CC1` (stereo partly drawn) [Compound 157, 3-cyclopropyl-N-((1S)—((S)-3,3-difluorocyclohexyl)(6-(((5S)-2-oxo-5-(trifluoromethyl)piperidin-3-yl)methyl)imidazo[1,2-b]pyridazin-2-yl)methyl)isoxazole-4-carboxamide] the value was less than 0.1 µM; for `CCn1nccc1C(=O)N[C@H](c1cn2nc(CC3C(=O)NCC3C(F)(F)F)ccc2n1)C(C1CC1)C1CC1` (single isomer, unassigned) [Compound 46], greater than 1 µM. Then `Cc1conc1C(=O)N[C@H](c1cn2nc(CC3C[C@@H](C(F)(F)F)CNC3=O)ccc2n1)C1CCC(F)(F)CC1` (stereo partly drawn) [Compound 103, N-((1S)-(4,4-difluorocyclohexyl)(6-(((5R)-2-oxo-5-(trifluoromethyl)piperidin-3-yl)methyl)imidazo[1,2-b]pyridazin-2-yl)methyl)-4-methylisoxazole-3-carboxamide], with 0.1 to 1 µM; and `CCn1nccc1C(=O)N[C@H](c1cn2nc(CC3C(=O)NCCC3C)ccc2n1)[C@H]1CC[C@H](C)CC1` (single isomer, unassigned) [Compound 53], with 0.1 to 1 µM; and `CCn1nccc1C(=O)N[C@H](c1cn2nc(CC3C[C@H](C(F)(F)F)CNC3=O)ccc2n1)[C@H]1CC[C@H](C)CC1` (stereo partly drawn) [Compound 154, 1-Ethyl-N-((1S)-((1R.4S)-4-methylcyclohexyl)(6-(((5S)-2-oxo-5-(trifluoromethyl)piperidin-3-yl)methyl)imidazo[1,2-b]pyridazin-2-yl)methyl)-1H-pyrazole-5-carboxamide], with less than 0.1 µM. Take `CCn1nccc1C(=O)N[C@H](c1cn2nc(CC3C[C@@H](C(F)(F)F)CNC3=O)ccc2n1)C1CC2(CC2)C1` (stereo partly drawn) [Compound 192, 1-ethyl-N—((1S)-(6-(((5R)-2-oxo-5-(trifluoromethyl)piperidin-3-yl)methyl)imidazo[1,2-b]pyridazin-2-yl)(spiro[2.3]hexan-5-yl)methyl)-1H-pyrazole-5-carboxamide]: the IC50 is greater than 1 µM. For `O=C(N[C@H](c1cn2nc(CC3C[C@@H](C(F)(F)F)CNC3=O)ccc2n1)[C@H]1CCCC(F)(F)C1)c1conc1C1CC1` (stereo partly drawn) [Compound 146, 3-cyclopropyl-N-((1S)—((S)-3,3-difluorocyclohexyl)(6-(((5R)-2-oxo-5-(trifluoromethyl)piperidin-3-yl)methyl)imidazo[1,2-b]pyridazin-2-yl)methyl)isoxazole-4-carboxamide] the value was less than 0.1 µM.

Consider `CCn1nccc1C(=O)N[C@H](c1cn2nc(CC3CC(C(C)(F)F)NC3=O)ccc2n1)C1CCC(F)(F)CC1` (single isomer, unassigned) [Compound 68], for which the IC50 was greater than 1 µM. Take `CCn1nccc1C(=O)N[C@H](c1cn2nc(CC3(C)C[C@@H](C(F)(F)F)CNC3=O)ccc2n1)[C@H]1CC[C@H](C)CC1` (single isomer, unassigned) [Compound 67]: the IC50 fell in the range of 0.1 to 1 µM. Then `Cc1nonc1C(=O)N[C@H](c1cn2nc(CC3C[C@@H](C(F)(F)F)CNC3=O)ccc2n1)C1CCC(F)(F)CC1` (stereo partly drawn) [Compound 100, N-((1S)-(4,4-difluorocyclohexyl)(6-(((5R)-2-oxo-5-(trifluoromethyl)piperidin-3-yl)methyl)imidazo[1,2-b]pyridazin-2-yl)methyl)-4-methyl-1,2,5-oxadiazole-3-carboxamide], with 0.1 to 1 µM; and `CC[C@@H](c1ccc(F)cc1)[C@H](NC(=O)c1ccnn1CC)c1cn2nc(CC3C[C@@H](C(F)(F)F)CNC3=O)ccc2n1` (stereo partly drawn) [Compound 168, 1-ethyl-N-((1S,2S)-2-(4-fluorophenyl)-1-(6-(((3R.5R)-2-oxo-5-(trifluoromethyl)piperidin-3-yl)methyl)imidazo[1,2-b]pyridazin-2-yl)butyl)-1H-pyrazole-5-carboxamide], with less than 0.1 µM; and `CCn1nccc1C(=O)N[C@H](c1cn2nc(CC3CC4(CC4)NC3=O)ccc2n1)C(C1CC1)C1CC1` (stereo partly drawn) [Compound 60, N-((1S)-2,2-dicyclopropyl-1-(6-((5-oxo-4-azaspiro[2.4]heptan-6-yl)methyl)imidazo[1,2-b]pyridazin-2-yl)ethyl)-1-ethyl-1H-pyrazole-5-carboxamide], with 0.1 to 1 µM. Then `CCn1nccc1C(=O)N[C@H](c1cn2nc(CC3CC(C4CC4)CNC3=O)ccc2n1)C1CCC(F)(F)CC1` (single isomer, unassigned) [Compound 71], with 0.1 to 1 µM.
